Assay results as given in article PMC6472337, “L amino acid transporter structure and molecular bases for the asymmetry of substrate interaction” (Nature Communications, 2019).
Changes are numbered by the printed parent chain. Where “and” joins values, the source holds several entries; their conditions need not be identical. Identical values can stand only once. Like-named read-outs stand apart in the source and are kept apart here.

How the values were obtained:
hAsc-1 Y280F mutant = molecular target: T1, hAsc-1 Y280F mutant (Homo sapiens, UniProt Q9NS82, Y280F); assay: [3H]L-alanine uptake in HeLa cells, hAsc-1 Y280F; format: cell-based; conditions: WT = 100, n=1-3 and mean
T1 construct: expressed in transfected cells; host or cells: HeLa
T1 sequence (Q9NS82 1-523 Y280F): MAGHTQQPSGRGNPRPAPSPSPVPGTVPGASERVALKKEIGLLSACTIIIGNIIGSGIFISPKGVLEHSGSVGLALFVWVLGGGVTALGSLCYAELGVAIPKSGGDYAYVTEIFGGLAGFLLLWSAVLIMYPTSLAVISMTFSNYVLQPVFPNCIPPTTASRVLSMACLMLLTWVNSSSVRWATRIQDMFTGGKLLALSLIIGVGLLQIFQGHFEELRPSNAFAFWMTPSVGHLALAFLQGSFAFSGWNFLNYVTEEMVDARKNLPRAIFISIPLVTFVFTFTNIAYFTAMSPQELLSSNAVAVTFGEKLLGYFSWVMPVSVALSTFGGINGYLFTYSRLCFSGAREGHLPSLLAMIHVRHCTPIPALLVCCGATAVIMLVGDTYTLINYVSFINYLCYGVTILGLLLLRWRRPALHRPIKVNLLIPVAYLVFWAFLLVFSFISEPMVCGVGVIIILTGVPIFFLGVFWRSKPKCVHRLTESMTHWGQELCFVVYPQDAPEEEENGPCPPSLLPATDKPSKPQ
T1 sequence (P08195 1-529 partner): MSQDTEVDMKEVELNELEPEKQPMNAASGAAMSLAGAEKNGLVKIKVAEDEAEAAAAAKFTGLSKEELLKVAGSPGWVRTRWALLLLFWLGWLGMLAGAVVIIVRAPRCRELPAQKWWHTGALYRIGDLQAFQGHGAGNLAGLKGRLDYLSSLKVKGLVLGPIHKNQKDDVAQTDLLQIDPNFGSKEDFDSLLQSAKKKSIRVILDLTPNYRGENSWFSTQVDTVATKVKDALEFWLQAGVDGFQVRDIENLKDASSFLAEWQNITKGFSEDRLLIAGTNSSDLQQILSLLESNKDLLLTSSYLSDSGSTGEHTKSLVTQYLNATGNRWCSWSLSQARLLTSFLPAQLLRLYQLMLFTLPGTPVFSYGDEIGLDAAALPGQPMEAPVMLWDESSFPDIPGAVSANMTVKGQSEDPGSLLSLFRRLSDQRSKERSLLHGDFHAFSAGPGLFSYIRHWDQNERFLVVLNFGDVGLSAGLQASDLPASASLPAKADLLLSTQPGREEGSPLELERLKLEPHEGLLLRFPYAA
Source text: (§1) All mutations were verified by sequencing.

wild-type BasC = assay: Thermostability-based L-alanine binding assay (GFP-fused protein, SEC); parameters: species or system Carnobacterium sp AT7; conditions: for Kd Wild-type binding curve, normalized signal: n=1-3
Method: (§2) GFP-fused BasC proteins purified in DM were incubated for 10 min at 4–60 °C (Y236F and K154A mutants) or 4–70 °C (wild-type). In total, 200 µl of 2 mg ml^−1 protein was used for each temperature point. Protein was then centrifuged at 186,000 × g for 30 min. […] Fractions (200 µl) were collected and measured for GFP fluorescence. The peak heights were normalized to those of samples incubated at 4 °C and were fit to the Hill equation using the GraphPad Prism 4 program (GraphPad Software Inc., San Diego, CA). Melting temperatures (Tm) were determined by fitting the curves to a sigmoidal dose-response equation, as previously described.
(§3) BasC-GFP proteins were then incubated at the calculated Tm for 10 min and centrifuged at 186,000 × g for 30 min. […] Binding affinities were determined by fitting the curves to a sigmoidal dose-response equation.

hAsc-1 S325A mutant = molecular target: T2, hAsc-1 S325A mutant (Homo sapiens, UniProt Q9NS82, S325A); assay: [3H]L-alanine uptake in HeLa cells, hAsc-1 S325A; format: cell-based; conditions: WT = 100, n=1-3 and mean
T2 construct: expressed in transfected cells; host or cells: HeLa
T2 sequence (Q9NS82 1-523 S325A): T1 sequence (Q9NS82 1-523 Y280F) with F280Y, S325A
T2 sequence (P08195 1-529 partner): T1 sequence (P08195 1-529 partner)
Source text: as §1

BasC K154A mutant = assay: Thermostability-based L-alanine binding assay, K154A; parameters: species or system Carnobacterium sp AT7; conditions: for Kd K154A binding curve, normalized signal: n=1-3
Method: as §2, §3

For C[C@H](N)C(=O)O [L-alanine], the “transport of 10 µM [3H]L-alanine normalized to wild-type” value (hAsc-1 Y280F mutant) was 133.65 and 128.34 and 128.02 and 123.34, the Kd (wild-type BasC; WT BasC, incubated at Tm, L-alanine 0–200 mM, read-out: KD (apparent, thermostability-based)) was 34.5 ± 2.1 mM and the “Kd Wild-type binding curve, normalized signal” value (wild-type BasC; [L-Alanine] 0.36 mM) was 4.340 and 4.304 and 4.417. The “Kd Wild-type binding curve, normalized signal” value (wild-type BasC; [L-Alanine] 1.50 mM) was 6.609 and 6.614 and 8.554, the “Kd Wild-type binding curve, normalized signal” value (wild-type BasC; [L-Alanine] 3.13 mM) was 10.226 and 10.310 and 9.554 and the “Kd Wild-type binding curve, normalized signal” value (wild-type BasC; [L-Alanine] 6.25 mM) was 16.111 and 16.814 and 19.554. For the same compound, the “Kd Wild-type binding curve, normalized signal” value (wild-type BasC; [L-Alanine] 12.50 mM) was 30.546 and 30.584 and 35.221, the “Kd Wild-type binding curve, normalized signal” value (wild-type BasC; [L-Alanine] 25 mM) was 47.282 and 48.296 and 50.554 and the “Kd Wild-type binding curve, normalized signal” value (wild-type BasC; [L-Alanine] 50 mM) was 70.152 and 71.030 and 72.225. The “Kd Wild-type binding curve, normalized signal” value (wild-type BasC; [L-Alanine] 100 mM) was 82.376 and 81.876 and 86.554, the “Kd Wild-type binding curve, normalized signal” value (wild-type BasC; [L-Alanine] 150 mM) was 97.076 and 84.776 and 95.225 and the “Kd Wild-type binding curve, normalized signal” value (wild-type BasC; [L-Alanine] 200 mM) was 100.000. The Kd (wild-type BasC; individual experiments n=1, n=2, n=3, read-out: Apparent Kd Wild type) was 35.9 mM and 35.4 mM and 32.2 mM, the Kd (wild-type BasC; mean of n=3, read-out: Apparent Kd Wild type, mean) was 34.5 mM and the “transport of 10 µM [3H]L-alanine normalized to wild-type” value (hAsc-1 S325A mutant) was 135.06 and 126.01 and 130.11. The “transport of 10 µM [3H]L-alanine normalized to wild-type” value (hAsc-1 S325A mutant; mean) was 130.39, the Kd (BasC K154A mutant; K154A, incubated at Tm, L-alanine 0–200 mM, read-out: KD (apparent, thermostability-based)) was 61.4 ± 7.3 mM and the “Kd K154A binding curve, normalized signal” value (BasC K154A mutant; [L-Alanine] 6.25 mM) was 14.092 and 14.380 and 15.376. The “Kd K154A binding curve, normalized signal” value (BasC K154A mutant; [L-Alanine] 12.50 mM) was 15.845 and 21.520 and 16.121, the “Kd K154A binding curve, normalized signal” value (BasC K154A mutant; [L-Alanine] 25 mM) was 35.951 and 29.574 and 35.797 and the “Kd K154A binding curve, normalized signal” value (BasC K154A mutant; [L-Alanine] 50 mM) was 50.837 and 57.901 and 51.971. For the same compound, the “Kd K154A binding curve, normalized signal” value (BasC K154A mutant; [L-Alanine] 100 mM) was 91.898 and 90.173 and 89.225, the “Kd K154A binding curve, normalized signal” value (BasC K154A mutant; [L-Alanine] 150 mM) was 95.225 and 92.554 and 88.658 and the “Kd K154A binding curve, normalized signal” value (BasC K154A mutant; [L-Alanine] 200 mM) was 100.000. For the same compound, the Kd (BasC K154A mutant; individual experiments n=1, n=2, n=3, read-out: Apparent Kd K154A) was 55.6 mM and 58.9 mM and 69.7 mM and the Kd (BasC K154A mutant; mean of n=3, read-out: Apparent Kd K154A, mean) was 61.4 mM.
